Reference: US6821954B2, “Compounds and uses thereof in treating bone disorders” (Auckland UniServices Limited, priority 1997, dated 2004)
Bridge positions count the residues as written; N and C are the ends. Ends that are not written are not given here. Peptide text beside a SMILES is read from it.

Legend:
[1] = test system: neonatal mouse calvariae; experiment: Bone resorption in bone organ culture (45Ca release); type: cell-based; details: for effect on basal bone resorption: 10^−8 M, calcium release, FIG. 6
Method: Bone resorption studies were carried out in neonatal mouse calvariae as described previously. Mice were injected subcutaneously with […] at 2 days of age, and hemicalvariae were dissected out four days later. Hemicalvariae were pre-incubated for 24 hours in medium 199 with 0.1% bovine serum albumin, then changed to fresh medium containing peptide or vehicle. Incubation was continued for a further 48 hours. There were 5-7 hemicalvariae in each group.

[2] = Catabolism of peptides in calvarial organ culture (pre-incubation, then test on osteoblast proliferation); type: in vitro ADME, mouse; details: for effect of pre-incubation for two hours on osteoblastic activity: pre-incubation in calvarial organ culture 2 hours; for effect of pre-incubation for two hours on osteoblastic activity / osteoblastic activity after pre-incubation for four or more hours: cell number or thymidine incorporation, FIG. 7; for osteoblastic activity after pre-incubation for four or more hours: pre-incubation in calvarial organ culture four or more hours; for ability to block amylin's stimulation of osteoblast proliferation after pre-incubation: pre-incubation with calvariae for six hours, FIG. 8
Method: To determine whether the various peptide fragments underwent significant catabolism in organ culture, they were incubated with calvariae before being added to osteoblast cultures. The organ cultures were set up using hemicalvariae from animals that had not be pretreated with ^45Ca. The fragments or vehicle were incubated with the calvariae for 2, 4, or 6 hours. Extracts of the media were removed then immediately added to osteoblast cultures for measurement of their effects on osteoblast proliferation, as described above.

[3] = test system: fetal rat osteoblasts; experiment: Osteoblast proliferation studies (cell counts and [3H]-thymidine incorporation) in osteoblast-like cell culture; type: cell-based; details: for effect on osteoblast cell number / effect on thymidine incorporation / proliferative effect on osteoblasts: 10^−9 M; for effect on osteoblast cell number: 24 h incubation; for effect on osteoblast cell number / effect on thymidine incorporation: FIG. 1; for effect on thymidine incorporation: last two hours of 24 h incubation; for EC50: read-out: half-maximally effective concentration on cell number; for proliferative effect on osteoblasts: cell number and thymidine incorporation; for concentration that completely blocked the proliferative effect of intact amylin: intact amylin 10^−9 M, cell number, FIG. 4; for blocking of the action of intact amylin on cell number / blocking of the action of intact amylin on thymidine incorporation: equimolar concentrations (10^−9 M), FIG. 5, FIG. 9; for blocking of the effects of amylin-(1-8) on osteoblast proliferation: equimolar concentrations
Method: Osteoblasts were isolated by collagenase-digestion from 20-day fetal rat calvariae. Calvariae were dissected aseptically and the frontal and parietal bones were stripped of their periosteum. only the central portions of the bones, free from sutrue tissue, were collected. The calvariae were treated twice with phosphate buffered saline (PBS) containing 3 mM EDTA (pH 7.4) for 15 minutes at 37E C. in a shaking water bath. After washing once in PBS, the calvariae were treated twice with 3 ml of 1 mg/ml collagenase for 7 minutes at 37E C. After discarding the supernatants from digestions I and II, the calvariae were treated a further twice with 3 ml of 2 mg/ml collagenase (30 mins, 37E C.). The supernatants of digestions III and IV were pooled, centrifuged, and the cells washed in Dulbecco's modified Eagle's medium (DME) with 10% fetal calf serum (FCS), suspended in further DME/10% FCS and placed in 75 cm^2 flasks. The cells were incubated under 5% CO2 and 95% air at 37E C. Confluence was reached by 5-6 days, at which time the cells were subcultured. After trypsinization using trypsin-EDTA (0.05%/0.53 mM), the cells were rinsed in minimum essential medium (MEM) with 5% FCS and resuspended in fresh medium, the seeded at 5×10^4 cells/ml in 24-well plates (0.5 ml cell suspension per well, i.e. 2.5×10^4 cells/well).
Proliferation studies (cell counts and thymidine incorporation) were performed in subconfluent cell populations, 24 h after subculturing cells were changed to serum-free medium with 0.1% bovine serum albumin plus the experimental compounds. Cell numbers were analysed 24 hours after addition of the peptide or vehicle by detaching cells form the wells by exposure to trypsin/EDTA (0.05%/0.53 mM) for approximately 5 minutes at 37E C. Counting was performed in a hemocytometer chamber. Results are expressed per well. [^3H]-Thymidine incorporation into actively-growing and growth-arrested cells was assessed by pulsing the cells with [^3H]-thymidine ([…]) two hours before the end of the experimental incubation. Experiments were terminated at 24 hours by washing the cells in MEM followed by the addition of 10% trichloroacetic acid. The precipitate was washed twice with ethanol:ether (3:1) and the wells desiccated at room temperature. The residue was redissolved in 2 M KOH at 55E C. for 30 mins, neutralized with 1 M HCI, and an aliquot counted for radioactivity. Results are expressed as dpm per well. For cell counts and thymidine incorporation, each experiment was performed at least four different times using experimental groups consisting of at least six wells.

[4] = test system: osteoblasts; details: background section; cited from earlier work
[5] = listed as amylin (1-8) with 2 to 7 disulphide bond removed

Molecule | effect on basal bone resorption [1] | effect of pre-incubation for two hours on osteoblastic activity [2] | osteoblastic activity after pre-incubation for four or more hours [2] | effect on osteoblast cell number [3] | effect on thymidine incorporation [3] | EC50 ([3]; 24 h, FIG. 2) | ability to block amylin's stimulation of osteoblast proliferation after pre-incubation [2] | concentration that completely blocked the proliferative effect of intact amylin [3] | proliferative effect on osteoblasts [3] | blocking of the action of intact amylin on cell number [3] | blocking of the action of intact amylin on thymidine incorporation [3] | further results
C[C@H](NC(=O)[C@@H]1CSSC[C@H](NC(=O)[C@@H](N)CCCCN)C(=O)N[C@@H](CC(N)=O)C(=O)N[C@@H]([C@@H](C)O)C(=O)N[C@@H](C)C(=O)N[C@@H]([C@@H](C)O)C(=O)N1)C(N)=O [Amylin-(1-8), Lysine-c[cysteine-asparagine-threonine-alanine-threonine-cysteine]-alanine-NH2] (H-KCNTATCA-NH2; disulfide 2-7) | lack of effect | no effect | completely lost their activity | consistently stimulated | consistently stimulated | 0.24 nM | – | – | – | – | – | effect on bone resorption, multiple additions ([1]; additions at 0, 8 and 30 hours, data not shown): did not influence bone resorption; effect on osteoblast cell number ([3]; listed as (1-8) fragment): stimulated both indices; effect on thymidine incorporation ([3]; listed as (1-8) fragment): stimulated both indices; concentrations at which the maximal effect on cell number was seen ([3]; 24 h, FIG. 2): ≥ 10^−9 M; maximal effect on cell number compared with intact amylin ([3]; 24 h, FIG. 2): not significantly less than that produced by the intact molecule; proliferative effect on osteoblasts ([3]; listed as Amylin (1-8)): active; proliferative effect on osteoblasts ([3]; listed as amylin-(1-8)): stimulates osteoblast proliferation
Amylin-(8-37): rat amylin fragment 8-37; functions as an amylin antagonist in other tissues | – | – | – | – | – | – | decreased their ability to block | ≥ 10^−10 M | – | – | – | –
Reduced Amylin: Rat amylin reduced with dithiothreitol (2-7 disulphide removed) | – | – | – | – | – | – | decreased their ability to block | – | no proliferative effect | effective blockers | effective blockers | –
Reduced amylin (1-8): amylin (1-8) reduced with dithiothreitol, 2 to 7 disulphide bond removed (KCNTATCA; Islet amyloid polypeptide reduced, disulphide removed; UniProt P12969 38-45, looked up, fragment) | – | – | – | – | – | – | – | – | no proliferative effect | effective blocker | effective blocker | blocking of amylin's inhibition of bone resorption ([1]; with amylin): did not act as a blocker; proliferative effect on osteoblasts [3, 5]: inactive; blocking of the effects of amylin-(1-8) on osteoblast proliferation [3]: effective blocker; blocking of the effects of amylin-(1-8) on osteoblast proliferation [3, 5]: blocks the activity of amylin (1-8)
CGRP-(8-37): the comparable (8-37) peptide fragment from CGRP (calcitonin gene-related peptide) (VTHRLAGLLSRSGGVVKNNFVPTNVGSKAF; ends and bridges not checked) | – | – | – | – | – | – | – | > 10^−8 M | – | – | – | –
Amylin: 37-amino acid peptide co-secreted with insulin from the beta cells of the pancreatic islets; rat amylin used | inhibited basal bone resorption | no effect | completely lost their activity | significant increase | significant increase | 0.02 nM | – | – | – | – | – | concentrations giving dose-dependent stimulation of osteoblast proliferation [4]: ≥ 10^−11 M
